# Reference: patent US9364448B2, “Nitisinone for treatment of oculocutaneous/ocular albinism and for increasing pigmentation” (The United States of America, as represented by the …, priority 2010, dated 2016)
# Experiments:
# [1] = system: C57BL/6J-Tyr^c-h/c-h mice (OCA1b model); test: Plasma tyrosine in NTBC-treated Tyr^c-h/c-h (Himalayan) mice; type: in vivo, mouse
# Description: Drug Dosing and Monitoring.
# Plasma tyrosine was assayed from retro-orbital blood taken from mice at 1 week, and 4 weeks into treatment. Because the volume of blood that could be obtained from non-terminal bleeds was small, the plasma from 2-3 mice was pooled to make a single measurement. Plasma samples were frozen immediately after collection on dry ice. Samples ready for assay were gently thawed, diluted with an equal volume of loading buffer (0.2 M lithium citrate, pH 2.2), and filtered using Vivaspin 500 (3000 Da molecular weight cut-off, Sartorius Stedman Biotech, Goettingen, Germany) spun in a fixed angle centrifuge at about 14000×g for 60 minutes at a temperature of about 16-20° C. The supernatant was collected and tyrosine was quantitated on a Biochrom 30 […] (Biochrom, Ltd., Cambridge, UK) using the manufacturer's specifications.
# Using the same protocol as described above, baseline plasma tyrosine, coat color (gross and microscopic), anterior segment pigment, and posterior segment pigment was documented for each mouse prior to initiating experiments. […] These treated mice were compared to an age- and gender-matched cohort of C57BL/6J-Tyr^c-h/c-h mice over the same time period. Corneal irritation due to NTBC treatment was monitored daily. At the start of treatment, an area of hair was plucked/shaved from each mouse's back, which has the effect of stimulating new hair growth and possibly new pigment deposition in the hair shaft. At the end of four weeks' time, plasma tyrosine concentrations were assessed in both treated and control animals.
# Tyr^c-h/c-h pups = test: Prenatal NTBC treatment of pregnant Tyr^c-h/c-h females, pup examination
# Description: Drug Dosing and Monitoring. Ten C57BL/6J Tyr^c-2J/c-2J and ten C57BL/6Tyr^c-h/c-h mice, 3-4 months of age were designated for treatment with NTBC (Swedish Orphan Drug, Stockholm, Sweden). An equal number of age-matched controls of each genotype designated to receive vehicle treatment. NTBC was dissolved in 2 M NaOH and brought to neutral pH before administration to mice. Coat color, iris transillumination and fundus appearance were photodocumented prior to treatment. Because pigment deposition in hair is stimulated with new hair growth, a section of each mouse's coat was shaved prior to the beginning of the experiment. Drug or vehicle was given every other day via oral gavages, at a dosage of about 4 mg/kg, in a volume of about 0.2-0.3 ml. […] Coat color, iris transillumination and fundus appearance were photodocumented at the end of 1 month of treatment or vehicle dosing. For prenatal treatment experiments, pregnancy was determined by a maternal weight gain of >2 g over 7-9 days, after observing a vaginal mucus plug. Treatment with 4 mg/kg NTBC was initiated daily at day 9 or 10 of pregnancy by oral gavage, and given until birth of the litter. At that point, every-other-day oral treatment of the mother was initiated until time of weaning.
# [2] = target: T1, H420R mutant tyrosinase in Melan-c cells (Mus musculus, UniProt P11344, H420R); test: Tyrosinase enzyme activity in transfected Melan-c cells, H420R; type: cell-based; conditions: 1 mM tyrosine; Melan-c cells expressing H420R; p=0.03
# T1 construct: expressed in transfected cells; host or cells: Melan-c cells (albino mouse melanocytes), Fugene HD transfection
# T1 sequence (P11344 19-533 H420R): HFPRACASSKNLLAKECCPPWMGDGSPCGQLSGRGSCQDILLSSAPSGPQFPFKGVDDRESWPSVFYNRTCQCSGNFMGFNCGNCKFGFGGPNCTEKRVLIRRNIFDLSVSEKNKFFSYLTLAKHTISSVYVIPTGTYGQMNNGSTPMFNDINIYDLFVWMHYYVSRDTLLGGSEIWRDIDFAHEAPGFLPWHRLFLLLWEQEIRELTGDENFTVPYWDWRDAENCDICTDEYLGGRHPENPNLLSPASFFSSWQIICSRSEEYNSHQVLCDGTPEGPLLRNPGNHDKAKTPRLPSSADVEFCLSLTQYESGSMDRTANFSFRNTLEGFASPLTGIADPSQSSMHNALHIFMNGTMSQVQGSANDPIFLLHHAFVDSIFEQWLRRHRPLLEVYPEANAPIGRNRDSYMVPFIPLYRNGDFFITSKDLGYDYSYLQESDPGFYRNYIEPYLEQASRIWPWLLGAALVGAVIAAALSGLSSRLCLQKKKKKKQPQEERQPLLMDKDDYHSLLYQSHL
# Description: Melan-c cell cultures. Melan-c cells (melanocytes derived from mice homozygous for the albino mutation (D. C. Bennett et al., Development, 105:379 (1989)) were cultured in RPMI 1640, pH 6.9 supplemented with 5% fetal bovine serum (FBS), streptomycin-penicillin (100 μg/ml each), 200 nM tetradeconyl phorbol acetate (TPA), and 100 μM β-mercaptoethanol, at 37° C. in 10% CO2. Cells were transfected using Fugene HD reagent according to the manufacturer's instructions (Roche Diagnostics Inc., Indianapolis, Ind.) in presence or absence of 1 mM tyrosine. After 24 hours, cells were washed twice with saline phosphate buffer, harvested in 10 mM sodium phosphate, pH 6.8, containing 1% Igepal CA-630 and protease inhibitor (Roche), and microcentrifuged for 30 minutes at 13,200×g, at a temperature of about 4° C. to obtain a protein lysate.
# Diphenol oxidase activity of tyrosinase was determined spectrophotometrically according to Slominski et al., J. Invest. Dermatol., 96:172 (1991), with minor modifications. Briefly, the reaction mixtures contained 7 mM L-dopa in 0.1 M sodium phosphate buffer (pH 6.8) and protein lysate (20 mg/ml) was incubated at 37° C. and monitored by measuring the absorbance at 475 nm. All experiments were conducted in triplicate. […]
Structure (SMILES),"Plasma tyrosine concentration ([1]; Tyr^c-h (OCA1b model), 4 mg/kg q.o.d. oral, after 30 days, n = 4)","Increase in steady-state plasma tyrosine concentrations ([1]; Tyr^c-h/c-h mice, 4 mg/kg orally every other day, vs control) [fold]","Plasma tyrosine concentrations, treated vs control ([1]; Tyr^c-h/c-h mice, dose as in Example 1 (1 mg/kg every other day), one month)","Fundus appearance of pups, vehicle- vs drug-treated dams (Tyr^c-h/c-h pups; Tyr^c-h/c-h, 4 mg/kg)","Congenital malformations or systemic illnesses in pups of treated mothers (Tyr^c-h/c-h pups; Tyr^c-h/c-h, 4 mg/kg prenatal treatment)","Iris pigmentation of pups on clinical examination (Tyr^c-h/c-h pups; pups of NTBC-treated Tyr^c-h/c-h mothers, 4 mg/kg, near time of weaning)","Coat color of pups (Tyr^c-h/c-h pups; pups of NTBC-treated Tyr^c-h/c-h mothers, 4 mg/kg, vs vehicle-treated mothers)",Tyrosinase enzyme activity over baseline [2]
"O=C1CCCC(=O)C1C(=O)c1ccc(C(F)(F)F)cc1[N+](=O)[O-] [NTBC, 2-(-2-nitro-4 trifluoromethylbenzoyl)-1,3 cyclohexanedione]","305 ± 35 μM (n = 4,",~4,not statistically significantly different,no significant difference,no obvious congenital malformations or systemic illnesses,significant pigmentation,considerably darker,–
N[C@@H](Cc1ccc(O)cc1)C(=O)O [tyrosine],–,–,–,–,–,–,–,increased enzyme activity over baseline
